Laboratory results from patent publication US20250108038A1 (priority 2023, published 2025).

Legend:
[1] = test system: Wistar rats; experiment: Five Choice Serial Reaction Time Task, standard version (STD), repeated administration; format: in vivo, Wistar rat; parameters: Latency (Correct) / Latency (Incorrect): unit not given here; conditions: for Latency (Correct) / Latency (Incorrect) / Magazine Head Entries / Omissions / Reward Latency / Trials Completed: STD
From the text: The behavioral tasks utilized were three versions of the rat Five Choice Serial Reaction Time Task (5C-SRTT), the standard version of the task (STD) with a fixed stimulus duration and a fixed intertrial interval, the variable stimulus duration (vSD) and the variable intertrial interval (vITI) version. The principal readout parameters in each task were the % Hit and the % correct choices (measures of sustained attention) and three measures of inhibitory response control (premature, perseverative, and timeout responses), although a number of additional outcome measures were obtained (see under Methods and Results below).
Twenty-four adult (approx. 10 months old) male Wistar rats (Envigo, Inc, Indianapolis, IN) were used in the study. […] Subjects were double housed in polycarbonate cages (45×30×18 cm) with corncob bedding in a vivarium of constant temperature (21-23° C.) and humidity (40-50%). […] All behavioral testing was performed during the light portion (9 a.m.-5 p.m.) of the light/dark cycle (Monday thru Friday). Animals were cared for in accordance with the Guide for the Care and Use of Laboratory Animals (U.S. National Institutes of Health) and the experimental protocols were approved by the Institutional Animal Care and Use Committee at Augusta University (Protocol #2010-0044).
The 5C-SRTT procedure (reviewed, Robbins, 2002. Psychopharmacology (Berl); 163(3-4):362-80) was conducted as we have described previously (Terry et al., 2014, Neurotoxicology and Teratology 44:18-29, 2014; Callahan et al., 2020, Neuropharmacology. August 15; 173:107994). […] Animals were trained in eight automated 5C-SRTT operant chambers (Med Associates, St. Albans, VT, USA), controlled by MedPC software (Med Associates). Briefly, each operant chamber was equipped with 5 apertures containing a photocell beam to detect nose pokes and a lamp (2.8 W) that could be illuminated randomly at varying durations. Food pellets (45 mg chow pellet, BioServ, Frenchtown, NJ, USA) were delivered automatically to a magazine, located on the opposite wall to the nose pokes, that was also equipped with a light that turned on to indicate that a pellet had been dispensed. The house-light remained on for the entire session unless an error or omission occurred. Training sessions began with the delivery of a food reward and retrieval triggered the first trial. […] Sessions ended when 40 minutes had lapsed or 100 trials had been completed.
For this study, subjects were re-trained 5 days per week until they re-established a stable performance criteria with a fixed (1.0 sec) stimulus duration and a fixed ITI (5 sec) of 70-75% accuracy, <20% omissions and completion of all 100 trials for 5 consecutive days. Upon meeting these performance criteria animals were trained for one additional week and two groups of subjects (N=12) were assembled and balanced according to their performance accuracy, specifically the % Hit evaluation, which takes into account correct responses as well as all incorrect responses including the number of omissions. […] The vSD version of the task increases the attentional load while the vITI increases impulsivity-like behavior. The following outcome measures and behavioral domains were assessed: % Hit and % correct=sustained attention; omissions=attention/motivation; premature responses=impulsivity; perseverative responses=compulsivity; timeout responses=cognitive inflexibility; magazine head entries=appetitive motivation and compulsivity-like behavior; response latencies=information processing speed and/or motivation. For the STD version of the task, the stimulus duration (SD) was fixed at 1.0 sec and the ITI was fixed at 5 sec. In the vSD version of the task the following stimulus durations were presented in a pseudorandom manner: 0.3, 0.6, and 0.9 sec. In the vITI version, 2.5, 5.0, and 10.0 sec ITIs were employed in a pseudorandom manner. […]

[2] = target: T1, CYP1A2 (Homo sapiens, UniProt P05177)
T1 sequence (P05177 1-516): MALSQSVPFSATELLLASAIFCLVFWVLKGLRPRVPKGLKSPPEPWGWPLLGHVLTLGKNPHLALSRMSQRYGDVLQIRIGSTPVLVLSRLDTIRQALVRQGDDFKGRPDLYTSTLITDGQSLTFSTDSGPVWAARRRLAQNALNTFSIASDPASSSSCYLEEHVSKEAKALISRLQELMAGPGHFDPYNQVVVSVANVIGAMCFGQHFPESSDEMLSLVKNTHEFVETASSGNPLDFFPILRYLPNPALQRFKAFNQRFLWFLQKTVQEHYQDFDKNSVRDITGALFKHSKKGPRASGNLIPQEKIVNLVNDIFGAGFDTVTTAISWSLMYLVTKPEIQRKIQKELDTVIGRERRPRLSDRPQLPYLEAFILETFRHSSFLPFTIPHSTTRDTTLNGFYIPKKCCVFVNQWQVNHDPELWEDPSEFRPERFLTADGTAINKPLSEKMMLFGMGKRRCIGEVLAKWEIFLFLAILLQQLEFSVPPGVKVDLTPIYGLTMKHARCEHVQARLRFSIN

[3] = target: T2, CYP2B6 (Homo sapiens, UniProt P20813); experiment: in vitro; conditions: both, pH 7.4
T2 sequence (P20813 1-491): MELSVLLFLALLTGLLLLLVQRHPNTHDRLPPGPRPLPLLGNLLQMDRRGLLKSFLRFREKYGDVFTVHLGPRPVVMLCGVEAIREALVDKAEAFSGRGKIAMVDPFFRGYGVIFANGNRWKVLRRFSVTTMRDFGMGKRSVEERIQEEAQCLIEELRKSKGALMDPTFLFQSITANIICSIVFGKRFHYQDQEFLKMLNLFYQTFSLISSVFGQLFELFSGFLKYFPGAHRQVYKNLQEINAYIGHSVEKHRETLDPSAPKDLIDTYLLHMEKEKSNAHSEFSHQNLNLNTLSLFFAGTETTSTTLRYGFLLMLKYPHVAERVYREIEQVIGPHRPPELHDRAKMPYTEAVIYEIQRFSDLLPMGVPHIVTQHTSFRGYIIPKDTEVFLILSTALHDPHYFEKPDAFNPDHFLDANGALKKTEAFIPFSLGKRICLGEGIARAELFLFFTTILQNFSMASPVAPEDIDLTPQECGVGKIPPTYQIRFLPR

[4] = Group 1, 0.1 mg/kg, Drug Exp period, mean ± SEM
[5] = Group 1, 0.1 mg/kg, Post-Drug Exp (vehicle washout) period, mean ± SEM
[6] = Group 2, 0.3 mg/kg, Drug Exp period, mean ± SEM
[7] = Group 2, 0.3 mg/kg, Post-Drug Exp (vehicle washout) period, mean ± SEM

Clc1ccc(C2(OCC3OCCO3)c3ccccc3C3=NCCN32)cc1 (stereo not drawn) [Compound I-19]
Latency (Correct) [1, 4]: 0.94 | Latency (Incorrect) [1, 4]: 2.15 | Magazine Head Entries [1, 4]: 150.65 ± 9.46 | Omissions [1, 4]: 9.43 | Reward Latency [1, 4]: 3.53 | Trials Completed [1, 4]: 96.99 ± 2.12 | Latency (Correct) [1, 5]: 0.87 ± 0.03 | Latency (Incorrect) [1, 5]: 1.86 ± 0.09 | Magazine Head Entries [1, 5]: 168.06 ± 13.60 | Omissions [1, 5]: 4.46 ± 0.81 | Reward Latency [1, 5]: 2.64 | Trials Completed [1, 5]: 97.65 ± 2.23 | Latency (Correct) [1, 6]: 0.92 | Latency (Incorrect) [1, 6]: 2.28 | Magazine Head Entries [1, 6]: 183.89 ± 32.19 | Omissions [1, 6]: 8.10 ± 2.32^+ | Reward Latency [1, 6]: 4.08 | Trials Completed [1, 6]: 98.44 ± 0.95 | Latency (Correct) [1, 7]: 0.78 | Latency (Incorrect) [1, 7]: 1.61 ± 0.07 | Magazine Head Entries [1, 7]: 211.72 ± 32.77 | Omissions [1, 7]: 3.26 ± 0.95 | Reward Latency [1, 7]: 2.27 | Trials Completed [1, 7]: 100.00 | % Hit and % correct ([1]; repeated 0.1 and 0.3 mg/kg IP): did not significantly affect either the % Hit or the % correct | premature responses ([1]; repeated 0.1 and 0.3 mg/kg IP): reduced the number of premature responses compared to pre- and post-drug conditions | Omissions ([1]; repeated 0.1 and 0.3 mg/kg IP, vSD and vITI versions): modest increases in the number of omissions | Inhibition at Highest Test Article Concentration ([2]; 1A2, Phenacetin, at 50 μM): 18.2 at 50 μM % | IC50 ([2]; pooled human liver microsomes, 30 min): did not inhibit

OC1(c2ccc(Cl)cc2)c2ccccc2C2=NCCN21 (stereo not drawn) [Compound A, 5-(4-chlorophenyl)-2,3-dihydroimidazo[1,2-b]isoindol-5-ol, reference compound]
inhibition at 10 µM [3]: 62%
